Literature values in patent US20210319872A1, “DRUG AND DEVICE COMBINATION PRODUCTS WITH IMPROVED SAFETY AND EFFICACY PROFILES” (priority 2016, published 2021).
Where two headings read alike, the source gives them in different places.

COc1ccc2c3c1O[C@H]1[C@@H](O)C=C[C@H]4[C@@H](C2)N(C)CC[C@@]341 [Codeine]
Common side effect, Gastrointestinal (in vivo): Gastrointestinal: Constipation, Nausea, Vomiting
Common side effect, Neurologic (in vivo): Neurologic: Dizziness, Lightheadedness, Sedated, Somnolence
Common side effect, Respiratory (in vivo): Respiratory: Dyspnea
Serious side effect, Cardiovascular (in vivo): Cardiovascular: Hypotension
Serious side effect, Gastrointestinal (in vivo): Gastrointestinal: Bowel obstruction, Pancreatitis
Serious side effect, Neurologic (in vivo): Neurologic: CSF pressure: raised, Seizure
Serious side effect, Respiratory (in vivo): Respiratory: Respiratory depression

C[C@@H]1CCN(C(=O)CC#N)C[C@@H]1N(C)c1ncnc2[nH]ccc12 [Xeljanz (Jak Compounds)]
Decreased lymphocyte count (in vivo): Hematologic: Anemia, Decreased lymphocyte count (0.04%),
Headache (in vivo): Neurologic: Headache (3.4% to 4.3%)
Increased HDL level (in vivo): Endocrine metabolic: Increased HDL level (10% to 12%), Raised
Infectious disease (in vivo): Immunologic: Infectious disease (20% to 22%), Opportunistic
Nasopharyngitis (in vivo): Respiratory: Nasopharyngitis (2.8% to 3.8%), Upper respiratory
Neutropenia (in vivo): Neutropenia (0.07%)
Post-transplant lymphoproliferative disorder, Epstein Barr virus associated (in vivo): Barr virus associated (2.3%), Tuberculosis
Raised low density lipoprotein cholesterol (in vivo): low density lipoprotein cholesterol (15% to 19%)
Serious side effect, Dermatologic (in vivo): Dermatologic: Skin cancer, Non-melanoma
Serious side effect, Gastrointestinal (in vivo): Gastrointestinal: Gastrointestinal perforation
Serious side effect, Hematologic (in vivo): Hematologic: Anemia, Decreased lymphocyte count (0.04%),
Serious side effect, Hepatic (in vivo): Hepatic: Injury of liver
Serious side effect, Other (in vivo): Other: Cancer
Upper respiratory infection (in vivo): infection (3.8% to 4.5%)
Urinary tract infectious disease (in vivo): Renal: Urinary tract infectious disease (2%)

CC(C)(C)NCC(O)COc1cccc2c1CC(O)C(O)C2 (stereo not shown) [Nadolol (Corgard)]
Bradyarrhythmia (in vivo): Cardiovascular: Bradyarrhythmia (2%)
Cardiac dysrhythmia (in vivo): Cardiovascular: Atrioventricular block, Cardiac dysrhythmia (1%),
Dizziness (in vivo): Neurologic: Dizziness (2%)
Fatigue (in vivo): Other: Fatigue (2%)
Heart failure (in vivo): Heart failure (1%)
Serious side effects, listed without incidence or only as rare (in vivo): Cardiovascular: Atrioventricular block, Cardiac dysrhythmia (1%),

CC1Cc2ccccc2N1NC(=O)c1ccc(Cl)c(S(N)(=O)=O)c1 (stereo not shown) [Indapamide (Lozol)]
Dizziness (incidence) (in vivo): Neurologic: Asthenia, Dizziness (Greater than or equal to 5%),
Headache (incidence) (in vivo): Headache (Greater than or equal to 5%), Lethargy, Numbness
Hypokalemia (incidence) (in vivo): Endocrine metabolic: Hypokalemia (3% to 7%)

CCCC(CCC)C(=O)O.CCCC(CCC)C(=O)[O-].[Na+] [Divalproex (Depakote)]
Asthenia (in vivo): Neurologic: Asthenia (6% to 27%), Dizziness (up to 25%), Feeling
Backache (in vivo): 1% to less than 5%; migraine, 8%)
Common side effects, listed without incidence (in vivo): Ophthalmic: Amblyopia, Blurred vision, Diplopia (16%)
Diplopia (in vivo): Ophthalmic: Amblyopia, Blurred vision, Diplopia (16%)
Dizziness (in vivo): Neurologic: Asthenia (6% to 27%), Dizziness (up to 25%), Feeling
Feeling nervous (in vivo): nervous (up to 11%), Headache (31%), Insomnia (up to 15%),
Headache (in vivo): nervous (up to 11%), Headache (31%), Insomnia (up to 15%),
Indigestion (in vivo): 23%), Indigestion (8% to 11%), Loss of appetite (4% to 12%),
Infectious disease (in vivo): Other: Infectious disease (12% to 20%), Influenza (12%)
Influenza (in vivo): Other: Infectious disease (12% to 20%), Influenza (12%)
Insomnia (in vivo): nervous (up to 11%), Headache (31%), Insomnia (up to 15%),
Nausea (in vivo): Nausea (26% to 48%), Vomiting (15% to 27%)
Ototoxicity - deafness (in vivo): Otic: Ototoxicity - deafness (greater than 1% to less than 5%)
Palpitations (in vivo): Cardiovascular: Palpitations (greater than 1% to less than 5%),
Pancreatitis (in vivo): Gastrointestinal: Pancreatitis (greater than 1% to less than 5%)
Somnolence (in vivo): Somnolence (Adult, 7% to 30%; pediatric, greater than 5%),
Tachycardia (in vivo): Tachycardia (greater than 1% to less than 5%)
Thrombocytopenia, Dose-related (in vivo): Dose-related (1% to 27%)
Tremor (in vivo): Tremor (1% to 57%)
Vomiting (in vivo): Nausea (26% to 48%), Vomiting (15% to 27%)

CCCC(=O)Nc1ccc(OCC(O)CNC(C)C)c(C(C)=O)c1 (stereo not shown) [Acebutolol (Sectral)]
Angina (in vivo): Cardiovascular: Angina (2%), Bradyarrhythmia (2%), Heart failure
Bradyarrhythmia (in vivo): Cardiovascular: Angina (2%), Bradyarrhythmia (2%), Heart failure
Dizziness (in vivo): Neurologic: Dizziness (6%), Headache (6%)
Fatigue (in vivo): Other: Fatigue (11%)
Headache (in vivo): Neurologic: Dizziness (6%), Headache (6%)
Heart failure (in vivo): (2%)

Cc1ccc(-c2nc3ccc(C)cn3c2CC(=O)N(C)C)cc1 [Ambien (zolpidem)]
Allergic reaction (in vivo): Immunologic: Allergic reaction (4%)
Anaphylaxis (in vivo): Immunologic: Anaphylaxis (rare)
Angioedema (in vivo): Other: Angioedema (rare)
Chest pain (in vivo): Cardiovascular: Chest pain (1%), Tachycardia (0.1% to 1%)
Diarrhea (in vivo): Gastrointestinal: Diarrhea (1% to 3%), Nausea (1% to 7%)
Dizziness (in vivo): Neurologic: Dizziness (1% to 23.5%), Drugged state (3%),
Drugged state (in vivo): Neurologic: Dizziness (1% to 23.5%), Drugged state (3%),
Fatigue (in vivo): Other: Fatigue (0.1% to 3%)
Headache (in vivo): Headache (1% to 19%), Somnolence (2% to 15%)
Nausea (in vivo): Gastrointestinal: Diarrhea (1% to 3%), Nausea (1% to 7%)
Serious side effect, Neurologic (in vivo): Neurologic: Hepatic encephalopathy
Somnolence (in vivo): Headache (1% to 19%), Somnolence (2% to 15%)
Tachycardia (in vivo): Cardiovascular: Chest pain (1%), Tachycardia (0.1% to 1%)
Visual disturbance (in vivo): Ophthalmic: Visual disturbance (3%)

Cl.O=C1[C@@H]2[C@H]3CC[C@H](C3)[C@@H]2C(=O)N1C[C@@H]1CCCC[C@H]1CN1CCN(c2nsc3ccccc23)CC1 [Latuda]
Akathisia (in vivo): Neurologic: Akathisia (5.6% to 22%), Extrapyramidal disease
Anxiety (in vivo): Psychiatric: Anxiety (4% to 5%)
Cerebrovascular accident (in vivo): Neurologic: Cerebrovascular accident (0.1% to 1%), Seizure (less
Diarrhea (in vivo): Gastrointestinal: Diarrhea (3% to 5%), Nausea (10% to 17%),
Nausea (in vivo): Gastrointestinal: Diarrhea (3% to 5%), Nausea (10% to 17%),
Orthostatic hypotension (in vivo): Cardiovascular: Orthostatic hypotension (0.3% to 2.1%), Syncope
Serious side effect, Hematologic (in vivo): Hematologic: Agranulocytosis
Serious side effect, Other (in vivo): Other: Neuroleptic malignant syndrome
Serum creatinine raised (in vivo): Renal: Serum creatinine raised (2% to 4%)
Suicidal thoughts (in vivo): Psychiatric: Suicidal thoughts (0.4% to 1.1%)
Syncope (in vivo): (0.1%)
Vomiting (in vivo): Vomiting (2% to 8%)

COCCc1ccc(OCC(O)CNC(C)C)cc1 (stereo not shown) [Metoprolol (Lopressor, Toprol XL)]
Bradyarrhythmia (in vivo): Cardiovascular: Bradyarrhythmia (3%), Cold extremities (1%),
Bronchospasm (in vivo): Respiratory: Bronchospasm (1%)
Cold extremities (in vivo): Cardiovascular: Bradyarrhythmia (3%), Cold extremities (1%),
Common side effects, listed without incidence (in vivo): Neurologic: Dizziness (10%), Fatigue (10%), Headache
Constipation (in vivo): Gastrointestinal: Constipation (1%), Diarrhea (5%), Indigestion
Depression (in vivo): Psychiatric: Depression (5%)
Diarrhea (in vivo): Gastrointestinal: Constipation (1%), Diarrhea (5%), Indigestion
Dizziness (in vivo): Neurologic: Dizziness (10%), Fatigue (10%), Headache
Dyspnea (in vivo): Respiratory: Dyspnea (3%), Wheezing (1%)
Fatigue (in vivo): Neurologic: Dizziness (10%), Fatigue (10%), Headache
Heart failure (in vivo): Heart failure (1%), Hypotension (1%)
Hypotension (in vivo): Heart failure (1%), Hypotension (1%)
Indigestion (in vivo): (1%), Nausea (1%)
Nausea (in vivo): (1%), Nausea (1%)
Pruritus (in vivo): Dermatologic: Pruritus (5%), Rash (5%)
Rash (in vivo): Dermatologic: Pruritus (5%), Rash (5%)
Wheezing (in vivo): Respiratory: Dyspnea (3%), Wheezing (1%)

C[C@H]1O[C@@H](O[C@H]2[C@@H](O)C[C@H](O[C@H]3[C@@H](O)C[C@H](O[C@H]4CC[C@@]5(C)[C@H](CC[C@@H]6[C@@H]5CC[C@]5(C)[C@@H](C7=CC(=O)OC7)CC[C@]65O)C4)O[C@@H]3C)O[C@@H]2C)C[C@H](O)[C@@H]1O [Digitoxin]
Common side effects, listed without incidence (in vivo): Enlarged Breasts
Infrequent side effects, listed (in vivo): Sinus Bradycardia

CCCCCCCCc1ccc(CCC(N)(CO)CO)cc1 [Gilenya]
Increased liver enzymes (5 times ULN or greater (ALT, AST)): times ULN or greater (ALT, AST), 4.5%)
Increased liver enzymes (All elevations (ALT/GGT/AST)): 15%
Infectious disease (All infections): 72%
Abdominal pain (in vivo): 11%
Atrioventricular block (in vivo): Cardiovascular: Atrioventricular block (up to 4.7%),
Backache (in vivo): Musculoskeletal: Backache (10%), Pain, In Extremity (10%)
Bradyarrhythmia (in vivo): Bradyarrhythmia (3%.)
Cough (in vivo): 12%
Diarrhea (in vivo): 13%
Headache (in vivo): Neurologic: Headache (25%)
Herpesvirus infection (in vivo): Immunologic: Cryptococcosis, Herpesvirus infection (9%),
Influenza (in vivo): Immunologic: Influenza (11%)
Lymphocytopenia (Severe) (in vivo): Hematologic: Lymphocytopenia (Severe) (7%)
Pain, In Extremity (in vivo): Musculoskeletal: Backache (10%), Pain, In Extremity (10%)
Sinusitis (in vivo): 11%
Serious side effect, Dermatologic (listed without frequency): Dermatologic: Malignant melanoma
Serious side effect, Immunologic (listed without frequency): Immunologic: Cryptococcosis, Herpesvirus infection (9%),
Serious side effect, Neurologic (listed without frequency): Cryptococcal meningitis
Infectious disease (serious infections): 2.3%
Increased liver enzymes (up to 3 times ULN (ALT, AST)): 14%

CNCCC=C1c2ccccc2CCc2ccccc21 [Nortriptyline (Pamelor)]
Common side effects, listed without incidence (in vivo): Gastrointestinal: Constipation

CCOC(=O)[C@H](CCc1ccccc1)N[C@@H](C)C(=O)N1[C@H](C(=O)O)C[C@@H]2CCC[C@@H]21 [Ramipril (Altace)]
Cough (in vivo): Respiratory: Cough (8% to 12%)
Dizziness (in vivo): Neurologic: Asthenia, Dizziness (2.2% to 4%), Headache (5.4%)
Headache (in vivo): Neurologic: Asthenia, Dizziness (2.2% to 4%), Headache (5.4%)
Hypotension (in vivo): Cardiovascular: Hypotension (11%)

CCOc1nc2cccc(C(=O)O)c2n1Cc1ccc(-c2ccccc2-c2nnn[nH]2)cc1 [Candesartan (Atacand)]
Backache (in vivo): Musculoskeletal: Backache (3%.)
Dizziness (in vivo): Neurologic: Dizziness (less than 5%)
Hypotension (in vivo): Cardiovascular: Hypotension (18.8%)
Pharyngitis (in vivo): Respiratory: Pharyngitis (2%), Rhinitis (2%), Upper respiratory
Rhinitis (in vivo): Respiratory: Pharyngitis (2%), Rhinitis (2%), Upper respiratory
Upper respiratory infection (in vivo): infection (6%)
